Counter-ions that a name gives are not always drawn. Like-named read-outs stand apart in the source and are kept apart here.
What was measured:
[1] = biological target: NR1a/NR2B (Rattus norvegicus, UniProt P35439+Q00960); test: Electrophysiological assay at NMDA receptor subunits expressed in Xenopus oocytes (two-electrode voltage clamp); format: cell-based
Description: The clones were transformed into appropriate host bacteria and plasmid preparations were made with conventional DNA purification techniques. A sample of each clone was linearized by restriction enzyme digestion […] was synthesized with T3 RNA polymerase. The cRNA was diluted to 400 ng/μL and stored in 1 μL aliquots at −80° C. until injection.
The Xenopus Oocyte Expression System. […] Follicle-enclosed oocytes were micro-injected with 1:1 mixtures of NR1A:NR2A, 2B or 2C.; injecting 1 to 10 ng of RNA encoding each receptor subunit. NR1A encoding RNA was injected alone at ˜20 ng. Oocytes were stored in Barth's medium containing (in mM): NaCl, 88; KCl, 1; CaCl2, 0.41; Ca (NO3)2, 0.33; MgSO4, 0.82; NaHCO3, 2.4; HEPES 5, pH 7.4, with 0.11 mg/ml gentamicin sulphate. While oocytes were still surrounded by enveloping ovarian tissues, the Barth's medium was supplemented with 0.1% bovine serum.
Drugs were applied by bath perfusion. Using oocytes expressing different subunit combinations of NMDA receptor, NMDA currents were activated by co-application of glutamate (100 μM) and glycine (1-100 μM). Inhibitory potency of the novel antagonists was assessed on responses elicited by fixed concentrations of glutamate and glycine, by measuring reductions in current induced by progressively increasing concentrations of antagonist.
Concentration-inhibition curves were fit with Equation 1. […] For incomplete curves analysis by fitting was unreliable and IC50 values were calculated by simple regression over linear portions of the curves (Origin: Microcal Software).

[2] = Table 2, head names no subunit, electrophysiological assay results, read-out: IC50
[3] = Table 1, cloned rat NMDA receptor subunits in Xenopus oocytes, currents activated by glutamate (100 μM) and glycine (1-100 μM), read-out: NR1a/NR2B Oocyte IC50
[4] = Table 3, cloned rat NMDA receptor subunits in Xenopus oocytes, read-out: NR1a/NR2B Oocyte IC50

Chain of NR1a/NR2B (Q00960 27-1482, other chains not shown): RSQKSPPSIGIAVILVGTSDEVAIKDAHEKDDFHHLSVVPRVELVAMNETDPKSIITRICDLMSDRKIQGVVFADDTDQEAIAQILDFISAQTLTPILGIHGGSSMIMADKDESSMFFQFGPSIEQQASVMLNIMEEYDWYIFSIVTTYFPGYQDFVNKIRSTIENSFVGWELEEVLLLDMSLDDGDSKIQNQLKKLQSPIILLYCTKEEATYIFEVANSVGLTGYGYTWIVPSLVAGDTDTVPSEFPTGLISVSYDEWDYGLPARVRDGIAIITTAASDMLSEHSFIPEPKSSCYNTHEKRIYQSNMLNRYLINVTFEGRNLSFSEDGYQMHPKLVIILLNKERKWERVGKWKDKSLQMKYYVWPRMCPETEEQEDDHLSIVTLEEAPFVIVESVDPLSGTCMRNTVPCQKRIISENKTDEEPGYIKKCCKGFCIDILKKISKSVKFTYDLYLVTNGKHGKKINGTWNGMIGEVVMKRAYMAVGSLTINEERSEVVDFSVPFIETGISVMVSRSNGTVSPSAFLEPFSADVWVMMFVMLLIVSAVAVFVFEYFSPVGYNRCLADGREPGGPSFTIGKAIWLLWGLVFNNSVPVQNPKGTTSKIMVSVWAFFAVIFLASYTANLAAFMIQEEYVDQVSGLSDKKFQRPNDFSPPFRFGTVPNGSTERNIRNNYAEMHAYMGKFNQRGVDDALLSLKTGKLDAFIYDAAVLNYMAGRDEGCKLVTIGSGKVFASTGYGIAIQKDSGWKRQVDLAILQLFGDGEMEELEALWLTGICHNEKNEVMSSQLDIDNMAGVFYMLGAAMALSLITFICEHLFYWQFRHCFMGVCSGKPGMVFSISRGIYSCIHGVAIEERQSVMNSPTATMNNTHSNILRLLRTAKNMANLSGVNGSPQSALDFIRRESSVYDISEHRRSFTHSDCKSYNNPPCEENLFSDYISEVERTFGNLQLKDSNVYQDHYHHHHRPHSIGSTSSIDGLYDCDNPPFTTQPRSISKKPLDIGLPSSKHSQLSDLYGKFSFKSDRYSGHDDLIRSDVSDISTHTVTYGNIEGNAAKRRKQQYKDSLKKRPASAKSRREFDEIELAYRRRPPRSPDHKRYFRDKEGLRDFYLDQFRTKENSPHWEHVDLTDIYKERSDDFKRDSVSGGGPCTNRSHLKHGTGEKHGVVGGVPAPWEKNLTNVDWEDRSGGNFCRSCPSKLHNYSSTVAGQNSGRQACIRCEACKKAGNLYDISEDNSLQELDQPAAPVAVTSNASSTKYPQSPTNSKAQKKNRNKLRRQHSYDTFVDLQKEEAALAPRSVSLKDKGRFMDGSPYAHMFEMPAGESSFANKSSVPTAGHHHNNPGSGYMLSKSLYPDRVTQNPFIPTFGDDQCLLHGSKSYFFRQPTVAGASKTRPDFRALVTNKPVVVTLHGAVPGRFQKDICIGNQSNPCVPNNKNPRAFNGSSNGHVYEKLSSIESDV

Row | SMILES | IC50 [1, 2] [nM] | melting point [°C] | also measured
1 | CC(CCc1ccccc1)N[C@H]1CC[C@H](c2ccc(O)cc2)CC1 (stereo partly drawn) [Example 6b, trans-4-[4-(1-Methyl-3-phenylpropylamino)cyclohexyl]phenol] | 100 | – | –
2 | Oc1ccc([C@H]2CC[C@@H](NCc3ccccc3)CC2)cc1 [Example 4a, cis-4-(4-Benzylaminocyclohexyl)phenol] | – | 107 to 110 | IC50 [1, 3]: 70000 nM
3 | Oc1ccc([C@H]2CC[C@H](NCCSc3ccccc3)CC2)cc1 [Example 24, 4-[4-(2-Phenylsulfanylethylamino)cyclohexyl]phenol] | 40 | – | –
4 | CCN(CCCc1ccccc1)[C@H]1CC[C@H](c2ccc(O)c(CN)c2)CC1 (as salt: HCl) [Example 31, 2-aminomethyl-4-{4-[ethyl(3-phenylpropyl)amino]cyclohexyl}phenol] | – | 168 to 173 | –
5 | Oc1ccc([C@H]2CC[C@H](NCCCc3ccccc3)CC2)cc1 [Example 2b, trans-4-[4-(3-Phenylpropylamino)cyclohexyl]phenol] | – | – | IC50 [1, 3]: 34 nM
6 | C[C@@H](Cc1ccccc1)N[C@H]1CC[C@H](c2ccc(O)cc2)CC1 [Example 13, trans-4-[4-((S)-1-Methyl-2-phenylethylamino)cyclohexyl]phenol] | 16000 | 183 to 187 | –
7 | Oc1ccc([C@H]2CC[C@@H](NCc3cccnc3)CC2)cc1 [Example 7a, cis-4-{4-[(Pyridin-3-ylmethyl)amino]cyclohexyl}phenol] | – | – | IC50 [1, 4]: 135000 nM
8 | Oc1ccc([C@H]2CC[C@H](NCCCCCc3ccccc3)CC2)cc1 [Example 9, 4-[4-(5-Phenylpentylamino)cyclohexyl]phenol] | – | – | IC50 [1, 3]: 350 nM
9 | CC(C)(Oc1ccccc1)C(=O)N[C@H]1CC[C@H](c2ccc(O)cc2)CC1 [Example 22, Trans-N-[4-(4-Hydroxyphenyl)cyclohexyl]-2-methyl-2-phenoxy-propionamide] | 301000 | 114 to 117 | –
10 | CC(=O)N(CCCc1ccccc1)[C@H]1CC[C@H](c2ccc(O)cc2)CC1 [Example 17, trans-N-[4-(4-Hydroxyphenyl)cyclohexyl]-N-(3-phenylpropyl)acetamide] | 4400 | 175 to 180 | –
11 | Oc1ccc([C@H]2CC[C@H](N(CCCc3ccccc3)Cc3ccccc3)CC2)cc1 (as salt: HCl) [Example 29, 4-{4-[benzyl(3-phenylpropyl)amino]cyclohexyl}phenol] | – | 259 to 264 | –
12 | COC(=O)N(CCCc1ccccc1)[C@H]1CC[C@H](c2ccc(O)cc2)CC1 [Example 18, Trans-N-[4-(4-Hydroxyphenyl)cyclohexyl]-N-(3-phenylpropyl)carbamic acid methyl ester] | 50 | 128 to 133 | –
13 | CN(CCOc1ccccc1)[C@H]1CC[C@H](c2ccc(O)cc2)CC1 (as salt: salt) [Example 30, 4-{4-[methyl(2-phenoxyethyl)amino]cyclohexyl}phenol] | – | 216 to 220 | –
14 | OC[C@@H](Cc1ccccc1)N[C@H]1CC[C@H](c2ccc(O)cc2)CC1 [Example 10b, trans-4-[4-((R)-1-Hydroxymethyl-2-phenylethylamino)cyclohexyl]phenol] | 5000 | – | –
15 | Oc1ccc([C@H]2CC[C@H](NCCCc3ccccn3)CC2)cc1 [Example 15b, trans-4′-(3-Pyridin-2-ylpropylamino)cyclohexylphenol] | – | – | IC50 [1, 4]: 530 nM
16 | Oc1ccc([C@H]2CC[C@H](NCCc3ccccc3)CC2)cc1 [Example 3b, trans-4-(4-Phenethylamiocyclohexyl)phenol] | – | – | IC50 [1, 3]: 450 nM
17 | OC[C@@H](Cc1ccccc1)N[C@H]1CC[C@@H](c2ccc(O)cc2)CC1 [Example 10a, cis-4-[4-((R)-1-Hydroxymethyl-2-phenylethylamino)cyclohexyl]phenol] | 29000 | – | –
18 | Oc1ccc([C@H]2CC[C@H](NCCCCc3ccccc3)CC2)cc1 [Example 1b, trans-4-[4-(4-Phenylbutylamino)cyclohexyl]phenol] | – | – | IC50 [1, 3]: 35 nM
19 | Oc1ccc([C@H]2CC[C@@H](NCCCc3ccccc3)CC2)cc1 [Example 2a, cis-4-[4-(3-Phenylpropylamino)cyclohexyl]phenol] | – | – | IC50 [1, 3]: 600 nM
20 | Oc1ccc([C@H]2CC[C@H](NCc3cccnc3)CC2)cc1 [Example 7b, trans-4-{4-[(Pyridin-3-ylmethyl)amino]cyclohexyl}phenol] | – | – | IC50 [1, 4]: 100000 nM

Row | SMILES | IC50 [1, 2] [nM] | melting point [°C] | also measured
21 | Oc1ccc([C@H]2CC[C@@H](NCCCc3ccccn3)CC2)cc1 [Example 15a, cis-4-[4-(3-Pyridin-2-ylpropylamino)cyclohexyl]phenol] | – | – | IC50 [1, 4]: 11500 nM
22 | Oc1ccc([C@H]2CC[C@H](NCCNc3ccccc3)CC2)cc1 [Example 25, Trans-4-[4-(2-phenylaminoethylamino)cyclohexyl]phenol] | 50 | – | –
23 | Oc1ccc([C@H]2CC[C@@H](NCCCCc3ccccc3)CC2)cc1 [Example 1a, cis-4-[4-(4-Phenylbutylamino)cyclohexyl]phenol] | – | 128 to 131 | IC50 [1, 3]: 900 nM
24 | CC(=O)N(Cc1ccccc1)[C@H]1CC[C@H](c2ccc(O)cc2)CC1 [Example 16, trans-N-Benzyl-N-[4-(4-hydroxyphenyl)cyclohexyl]acetamide] | 200000 | 227 to 235 | –
25 | C[C@H](CCc1ccccc1)N[C@H]1CC[C@H](c2ccc(O)cc2)CC1 [Example 6c, trans-4-[4-((R)-1-Methyl-3-phenylpropylamino)cyclohexyl]phenol] | 60 | 152 to 160 | –
26 | Oc1ccc([C@H]2CC[C@H](NCc3ccccc3)CC2)cc1 [Example 4b, trans-4-(4-Benzylaminocyclohexyl)phenol] | – | 168 to 172 | IC50 [1, 3]: 43000 nM
27 | Oc1ccc([C@H]2CC[C@H](NCC#Cc3ccccc3)CC2)cc1 [Example 23, Trans-4-[4-(3-phenylprop-2-ynylamino)cyclohexyl]phenol] | 50 | – | –
28 | Oc1ccc([C@H]2CC[C@@H](NCCc3ccccc3)CC2)cc1 [Example 3a, cis-4-(4-Phenethylaminocyclohexyl)phenol] | – | 155 to 160 | IC50 [1, 3]: 830 nM
29 | Oc1ccc([C@H]2CC[C@H](NCCc3ccc(F)cc3)CC2)cc1 [Example 5b, trans-4-{4-[2-(4-Fluorophenyl)ethylamino]cyclohexyl}phenol] | – | – | IC50 ([1]; Table 4, cloned rat NMDA receptor subunits in Xenopus oocytes, read-out: NR1a/NR2B Oocyte IC50): 750 nM
30 | COc1ccc(CCCN[C@H]2CC[C@H](c3ccc(O)cc3)CC2)cc1 (as salt: HCl) [Example 28, Trans-4-{4-[3-(4-methoxyphenyl)propylamino]cyclohexyl}phenol] | – | 235 to 241 | –
31 | CC(C)N(CCCc1ccccc1)[C@H]1CC[C@H](c2ccc(O)cc2)CC1 (as salt: salt) [Example 27, Trans-4-{4-[N-isopropyl-N-(3-phenylpropyl)amino]cyclohexyl}phenol] | – | 146 to 154 | –
32 | C[C@@H](CCc1ccccc1)N[C@H]1CC[C@H](c2ccc(O)cc2)CC1 [Example 6d, trans-4-[4-((S)-1-Methyl-3-phenylpropylamino)cyclohexyl]phenol] | 70 | 165 to 170 | –
33 | Oc1ccc([C@H]2CC[C@@H](NCCOc3ccccc3)CC2)cc1 [Example 11a, cis-4-[4-(2-Phenoxyethylamino)cyclohexyl]phenol] | 2000 | – | –
34 | Oc1ccc([C@H]2CC[C@H](NCCOc3ccccc3)CC2)cc1 [Example 11b, trans-4-[4-(2-Phenoxyethylamino)cyclohexyl]phenol] | 20 | – | –
35 | Oc1ccc([C@H]2CC[C@H](NCCNc3ccccc3)CC2)cc1 (as salt: maleate) [Example 25, Trans-4-[4-(2-phenylaminoethylamino)cyclohexyl]phenol] | – | 180 to 184 | –
36 | Oc1ccc([C@H]2CC[C@H](NCCCCCc3ccccc3)CC2)cc1 (as salt: HCl) [Example 9, 4-[4-(5-Phenylpentylamino)cyclohexyl]phenol] | – | 252 to 260 | –
37 | O=C(CCc1ccccc1)N[C@H]1CC[C@H](c2ccc(O)cc2)CC1 [Example 21, Trans-N-[4-(4-Hydroxyphenyl)cyclohexyl]-3-phenylpropionamide] | 70 | 201 to 206 | –
38 | COC(=O)N(Cc1ccccc1)[C@H]1CC[C@H](c2ccc(O)cc2)CC1 [Example 19, Trans-N-benzyl-N-[4-(4-hydroxyphenyl)cyclohexyl]carbamic acid methyl ester] | 240000 | 61 to 66 | –
39 | CCN(CCCc1ccccc1)[C@H]1CC[C@H](c2ccc(O)cc2)CC1 (as salt: salt) [Example 26, Trans-4-{4-[N-ethyl-N-(3-phenylpropyl)amino]cyclohexyl) phenol] | – | 192 to 194 | –
40 | CC(CCc1ccccc1)N[C@H]1CC[C@@H](c2ccc(O)cc2)CC1 (stereo partly drawn) [Example 6a, cis-4-[4-(1-Methyl-3-phenylpropylamino)cyclohexyl]phenol] | 600 | – | –

— patent US6919377B2, “Cyclohexylamine derivative as subtype selective NMDA receptor antagonists” (Warner Lambert Company LLC, priority 2000, dated 2005)
